molecular target: Microtubule-associated protein tau (Homo sapiens, UniProt P10636); experiment: AlphaLisa Assay: Tau target (equal mixture of each construct at 300 nM) was prepared in buffer (Tris-HCl pH 7.4) and was incubated in 96-well plates at room temperature for 4 hours with vehicle control (DMSO) and a dose range of a compound of the disclosure (0.098 uM-50 uM). AlphaLisa acceptor beads & donor beads with ligands to the epitope tags (Perkin Elmer) were diluted (final 20 ug/mL per bead) in bead buffer (25 mM HEPES pH 7.4, 100 mM NaCl, 0.1% Tween-20), added to the wells and incubated 1 hour at room temperature. The positive control (non-incubated target) & blank (no tau) were prepared and mixed with beads in bead buffer and the plate was read immediately using the EnVision plate reader (Perkin Elmer).
Sequence (P10636 whole entry): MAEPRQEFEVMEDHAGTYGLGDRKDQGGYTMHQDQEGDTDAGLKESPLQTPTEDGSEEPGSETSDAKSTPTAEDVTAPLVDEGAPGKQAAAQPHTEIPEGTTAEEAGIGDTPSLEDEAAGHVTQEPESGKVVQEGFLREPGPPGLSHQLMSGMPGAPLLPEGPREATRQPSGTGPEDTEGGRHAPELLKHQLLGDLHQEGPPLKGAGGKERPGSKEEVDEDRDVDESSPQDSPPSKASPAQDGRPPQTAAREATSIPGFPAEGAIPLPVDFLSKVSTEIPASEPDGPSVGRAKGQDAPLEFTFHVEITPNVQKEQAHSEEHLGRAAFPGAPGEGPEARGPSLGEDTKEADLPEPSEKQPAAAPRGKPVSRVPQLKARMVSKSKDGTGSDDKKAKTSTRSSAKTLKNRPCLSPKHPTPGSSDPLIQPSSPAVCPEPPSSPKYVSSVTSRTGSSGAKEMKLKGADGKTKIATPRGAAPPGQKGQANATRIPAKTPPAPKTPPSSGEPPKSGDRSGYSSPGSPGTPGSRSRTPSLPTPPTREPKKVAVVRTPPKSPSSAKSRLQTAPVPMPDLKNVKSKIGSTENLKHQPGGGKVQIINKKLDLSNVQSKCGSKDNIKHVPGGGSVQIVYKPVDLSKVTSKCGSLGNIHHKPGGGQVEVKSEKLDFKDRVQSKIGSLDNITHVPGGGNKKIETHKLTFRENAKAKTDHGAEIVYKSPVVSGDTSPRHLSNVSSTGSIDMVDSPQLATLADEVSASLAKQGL

Compared with `COc1ccc(-c2ccc3oc(CCC(C)=O)c(-c4ccc(C)o4)c3c2)cn1`, `COc1cc(-c2ccc3oc(CCC(C)=O)c(-c4ccc(C)o4)c3c2)ccn1` is 13-fold lower in IC50: 1.27 µM for the first, 0.1 µM for the second. The second is the more potent here.

Going from `CC(=O)CCc1oc2ccc(-c3cccc(O)c3)cc2c1-c1ccc(C)o1` to `COc1cccc(-c2ccc3oc(CCC(C)=O)c(-c4ccc(C)o4)c3c2)c1`, the IC50 rises from 1.39 µM to 3.03 µM (2.2-fold).

Compared with `COc1cc(-c2ccc3c(-c4ccc(C)o4)c(CCC(C)=O)oc3c2)ccn1`, `CC(=O)CCc1oc2cc(-c3cccnc3)ccc2c1-c1ccc(C)o1` is 2.6-fold higher in IC50: 1.57 µM for the first, 4.02 µM for the second.

Going from `Cc1ccc(-c2c(CCC(C)(C)O)oc3ccc(Br)cc23)o1` to `Cc1ccc(C(C)(O)CCc2oc3ccc(Br)cc3c2-c2ccc(C)o2)cc1` (stereo unspecified), the IC50 rises from 0.1 µM to 1.93 µM (19-fold). The first is the more potent here.

Going from `Cc1ccc(-c2c(CCc3nc4ccccc4[nH]3)oc3ccc(Br)cc23)o1` to `CC(=O)CCc1oc2ccc(-c3cccnc3)cc2c1-c1ccc(C)o1`, the IC50 rises from 2.06 µM to 7.55 µM (3.7-fold). The first is the more potent here.

Work on `CC(=O)CCc1oc2ccc(-c3ccncc3)cc2c1-c1ccc(C)o1` yielded an IC50 of 6.35 µM.

Source: ChEMBL document CHEMBL5729064, “Benzofuran, benzothiophene, and indole analogs that inhibit the formation of tau oligomers and their method of use” (2022)
